Measurements: patent publication US20110060010A1, “SALTS OF 3-(4-AMINO-1-OXO-1,3-DIHYDRO-ISOINDOL-2-YL)PIPERIDINE-2,6-DIONE AND DERIVATIVES THEREOF, OR POLYMORPHS OF SALTS, PROCESS FOR PREPARING SAME AND USE THEREOF” (TIANJIN HEMAY BIO-TECH CO., LTD, priority 2008, published 2011)
≈ marks a conversion by molar mass, not a printed value. Like-named read-outs stand apart in the source and are kept apart here.

Assays:
[1] = 15° C.
[2] = Stability of aqueous solution at room temperature; format: physicochemical; conditions: 17 mg dissolved in 10 mL of deionized water, kept at room temperature for 12 hours
Procedure: 17 mg of 3-(4-amino-1-oxo-1,3-dihydro-isoindol-2-yl)piperidine-2,6-dione bisulfate tetrahydrate (equivalent to 10 mg of 3-(4-amino-1-oxo-1,3-dihydro-isoindol-2-yl)piperidine-2,6-dione) was dissolved in 10 mL of deionized water and kept at room temperature for 12 hours. The content is higher than 98% of labeled amount.

[3] = water, 15 °C, thermodynamic from solid

## Nc1cccc2c1CN(C1CCC(=O)NC1=O)C2=O (stereo not drawn) [Compound (II), in which Y represents H, 3-(4-amino-1-oxo-1,3-dihydro-isoindol-2-yl)piperidine-2,6-dione]
physchem; [3]
  solubility: 0.29 mg/mL (≈ 1120 µM)

## Nc1cccc2c1CN(C1CCC(=O)NC1=O)C2=O.O=S(=O)(O)c1cccc2ccccc12 (stereo not drawn) [Example 4]
[1]; in water
  solubility: 5.60 mg/mL

## Nc1cccc2c1CN(C1CCC(=O)NC1=O)C2=O.O.O.O.O.O=S(=O)(O)O (stereo not drawn) [Example 7, 3-(4-amino-1-oxo-1,3-dihydro-isoindol-2-yl)piperidine-2,6-dione bisulfate tetrahydrate]
[2]
  content (of labeled amount): higher than 98 % of labeled amount
physchem; 15 °C, water, thermodynamic from solid
  solubility at 1 h: > 1000 mg/mL
physchem; water, thermodynamic from solid
  solubility: > 1000 mg/mL

## Nc1cccc2c1CN(C1CCC(=O)NC1=O)C2=O.O=[N+]([O-])O (stereo not drawn) [Example 10]
[1]
  Water-solubility: 3.68 mg/mL

## Cl.Nc1cccc2c1CN(C1CCC(=O)NC1=O)C2=O (stereo not drawn) [Example 11]
[1]
  Water-solubility: 1.23 mg/mL

## Nc1cccc2c1CN(C1CCC(=O)NC1=O)C2=O (stereo not drawn) [Example 12, 3-(4-amino-1-oxo-1,3-dihydro-isoindol-2-yl)piperidine-2,6-dione]
physchem; [3]
  solubility at 1 h: 0.57 mg/mL (≈ 2200 µM)

## Br.Nc1cccc2c1CN(C1CCC(=O)NC1=O)C2=O (stereo not drawn) [Example 15]
[1]
  Water-solubility: 5.5 mg/mL
